Consider seven molecules from US9475328B2, “Developer for thermally responsive record materials” (Valspar Sourcing, Inc., priority 2012, dated 2016).

The test system of one assay is MCF-7, clone WS8 cells. The assay can be described thus: MCF-7 cell proliferation assay of estrogenic activity. The format is cell-based, human. The note with it: logarithmic (base 10) Relative Proliferative Effect vs 17-beta estradiol; cell proliferation measured as total DNA; values 'expected or measured'. An excerpt: The MCF-7 assay is a useful test for assessing whether a polyhydric phenol compound is appreciably non-estrogenic. The MCF-7 assay uses MCF-7, clone WS8 cells to measure whether and to what extent a substance induces cell proliferation via estrogen receptor (ER)-mediated pathways. The method is described in “Test Method Nomination: MCF-7 Cell Proliferation Assay of Estrogenic Activity” submitted for validation by CertiChem, Inc. to the National Toxicology Program Interagency Center for the Evaluation of Alternative Toxicological Methods (NICEATM) on Jan. 19, 2006 (available online at http://iccvam.niehs.nih.gov/methods/endocrine/endodocs/SubmDoc.pdf).
A brief summary of the method of the aforementioned MCF-7 assay is provided below. MCF-7, clone WS8 cells are maintained at 37° C. in RMPI (Roswell Park Memorial Institute medium) containing Phenol Red (e.g., GIBCO Catalog Number 11875119) and supplemented with the indicated additives for routine culture. […] At the end of the 7 day exposure to the test chemical, the media is removed, the wells are washed once with 0.2 ml of HBSS (Hanks' Balanced Salt Solution), and then assayed to quantify amounts of DNA per well using a micro-plate modification of the Burton diphenylamine (DPA) assay, which is used to calculate the level of cell proliferation. […]

The target of another assay is T1, human estrogen receptor (Homo sapiens, UniProt P03372).
T1 sequence (P03372 1-595): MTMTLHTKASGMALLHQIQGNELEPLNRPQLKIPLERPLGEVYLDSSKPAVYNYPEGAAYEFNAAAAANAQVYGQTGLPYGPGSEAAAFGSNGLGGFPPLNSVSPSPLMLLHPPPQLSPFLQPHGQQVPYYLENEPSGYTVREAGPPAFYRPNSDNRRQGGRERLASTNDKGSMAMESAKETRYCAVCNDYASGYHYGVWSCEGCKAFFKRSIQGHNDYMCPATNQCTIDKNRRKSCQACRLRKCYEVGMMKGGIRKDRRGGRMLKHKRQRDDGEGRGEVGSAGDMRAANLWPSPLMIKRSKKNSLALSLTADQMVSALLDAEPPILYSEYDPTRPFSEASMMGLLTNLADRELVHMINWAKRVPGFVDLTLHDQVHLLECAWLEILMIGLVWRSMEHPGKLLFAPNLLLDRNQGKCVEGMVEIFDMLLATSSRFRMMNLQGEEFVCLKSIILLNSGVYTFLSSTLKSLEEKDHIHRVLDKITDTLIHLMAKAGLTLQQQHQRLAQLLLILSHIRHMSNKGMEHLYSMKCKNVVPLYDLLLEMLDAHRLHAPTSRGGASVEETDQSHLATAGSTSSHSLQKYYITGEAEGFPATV
The assay can be described thus: suitable in vitro assay whose results correlate with the MCF-7 assay (estrogenic activity). The note with it: in vitro assay correlated to MCF-7 assay through common reference compounds. Type of assay: cell-based.

Structures are written as SMILES.

On to `C[C@]12CC[C@@H]3c4ccc(O)cc4CC[C@H]3[C@@H]1CC[C@@H]2O` [17β-estradiol], for which the “Log RPE” value in the assay on MCF-7, clone WS8 cells is listed as 2.00. Same read-out and setting: for `Oc1ccc(Cc2ccc(O)cc2)cc1` [Bisphenol F] the value was −2. For `Cc1cc(Cc2cc(C)c(O)c(C)c2)cc(C)c1O` [Structure 6, 4,4′-methylenebis(2,6-dimethylphenol)], the estrogenic activity result on human estrogen receptor is listed as “do not exhibit appreciable estrogenic activity”. The same measure, in the same setting: then `CCCC(c1cc(C(C)(C)C)c(O)cc1C)c1cc(C(C)(C)C)c(O)cc1C` [Structure 7, 4,4′-butylidenebis(2-t-butyl-5-methylphenol)], with “do not exhibit appreciable estrogenic activity”; and `CC(C)(C)c1cc(Cc2cc(C(C)(C)C)c(O)c(C(C)(C)C)c2)cc(C(C)(C)C)c1O` [Structure 8, 4,4′-methylenebis(2,6-di-t-butylphenol)], with “do not exhibit appreciable estrogenic activity”; and `Cc1cc(Cc2cc(C)cc(C(C)(C)C)c2O)c(O)c(C(C)(C)C)c1` [Structure 9], with “do not exhibit appreciable estrogenic activity”. The same measure, in the same setting: then `CC(C)(C)c1cc(O)c(C(C)(C)C)cc1O` [Structure 12, 2,5-di-t-butylhydroquinone], with “do not exhibit appreciable estrogenic activity”.
